Experiment in all cases: Bacterial growth minimal inhibitory concentration, microdilution
Holding throughout (type): cell-based

Experiment [1] deals with Staphylococcus aureus A798. The settings on record: multiply-resistant, quinolone-resistant strain, cation-adjusted Mueller Hinton Broth, read-out: MIC for S. aureus A798. As to the method: (§1) Minimal Inhibitory Concentrations (MICs; mg/l) were determined in cation-adjusted Mueller Hinton Broth by a microdilution method following the description given in “Methods for Dilution Antimicrobial Susceptibility Tests for Bacteria that Grow Aerobically”, Approved standard, 7th ed., Clinical and Laboratory Standards Institute (CLSI) Document M7-A7, Wayne, Pa., USA, 2006.
(§2) All Example compounds were tested against several Gram positive and especially Gram negative bacteria. […] Staphylococcus aureus A798, Klebsiella pneumoniae A651 and Acinetobacter baumanii T6474 are multiply-resistant strains (in particular quinolone-resistant), while Moraxella catarrhalis A894 and E. coli ATCC 25922 are quinolone-sensitive strains.

The test system of experiment [2] is Acinetobacter baumanii T6474. The settings on record: Acinetobacter baumannii, multiply-resistant, quinolone-resistant strain, cation-adjusted Mueller Hinton Broth. As to the method: as §1, §2
Experiment [3] relates to Klebsiella pneumoniae A651. The settings on record: multiply-resistant, quinolone-resistant strain, cation-adjusted Mueller Hinton Broth, read-out: MIC for K. pneumoniae A651. As to the method:
as §1, §2

For experiment [4], the system named is Moraxella catarrhalis A894. The following applies: quinolone-sensitive strain, cation-adjusted Mueller Hinton Broth. How it is done: as §1, §2
In experiment [5] the test system is E. coli ATCC 25922. The following applies: Escherichia coli, ATCC25922; quinolone-sensitive strain; cation-adjusted Mueller Hinton Broth. As to the method: as §1, §2

≈ marks a conversion by molar mass, not a printed value.

With `O=C1CSc2ccc(CNCC3CCN(c4nc5c(cc4F)c(=O)c(C(=O)O)cn5C4CC4)CC3)nc2N1` [Example 7, 1-Cyclopropyl-6-fluoro-4-oxo-7-(4-{[(3-oxo-3,4-dihydro-2H-pyrido[3,2-b][1,4]thiazin-6-ylmethyl)-amino]-methyl}-piperidin-1-yl)-1,4-dihydro-[1,8]naphthyridine-3-carboxylic acid], the MIC in experiment [1] is greater than 8 µg/mL; in experiment [2], 2 µg/mL (≈ 3.71 µM); in experiment [3], 4 µg/mL (≈ 7.43 µM); in experiment [4], 0.031 µg/mL (≈ 0.0576 µM); in experiment [5], 0.5 µg/mL (≈ 0.928 µM).

Consider `O=C1COc2ccc(CNCCN3CCN(c4nc5c(cc4F)c(=O)c(C(=O)O)cn5C4CC4)CC3)nc2N1` [Example 12, 1-Cyclopropyl-6-fluoro-4-oxo-7-(4-{2-[(3-oxo-3,4-dihydro-2H-pyrido[3,2-b][1,4]oxazin-6-ylmethyl)-amino]-ethyl}-piperazin-1-yl)-1,4-dihydro-[1,8]naphthyridine-3-carboxylic acid], for which the MIC in experiment [1] is greater than 8 µg/mL; in experiment [2], 8 µg/mL (≈ 14.9 µM); in experiment [3], 8 µg/mL (≈ 14.9 µM); in experiment [4], 1 µg/mL (≈ 1.86 µM); in experiment [5], 2 µg/mL (≈ 3.72 µM).

Turning to `Cn1cc(C(=O)O)c(=O)c2cc(F)c(N[C@H]3CC[C@H](CNCc4ccc5c(n4)NC(=O)CS5)CC3)nc21` [Example 13, trans-6-Fluoro-1-methyl-4-oxo-7-(4-{[(3-oxo-3,4-dihydro-2H-pyrido[3,2-b][1,4]thiazin-6-ylmethyl)-amino]-methyl}-cyclohexylamino)-1,4-dihydro-[1,8]naphthyridine-3-carboxylic acid], the MIC was found to be 1 µg/mL (≈ 1.9 µM) in experiment [1]; 0.125 µg/mL (≈ 0.237 µM) in experiment [2]; 0.25 µg/mL (≈ 0.475 µM) in experiment [3]; 0.031 µg/mL (≈ 0.0589 µM) in experiment [4]; 0.063 µg/mL (≈ 0.12 µM) in experiment [5].

(Values after patent publication US9540399B2, “Quinolone derivatives” (priority 2013, dated 2017).)
